Assay results from ChEMBL document CHEMBL1201862, “PubChem BioAssay data set” (2004).
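Protocol summary: plate cells (96-well), add compound at 5 concentrations, incubate 48 h, interpolate endpoints linearly. GI50 is the concentration that inhibits growth by half.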 The source made the active and inactive calls. Rule as the data show it: active = GI50 up to about 1.1 µM and inactive = higher.

How the values were obtained:
Experiment in all cases: NCI-60 cell line screen, 48 h
KM12 = test system: KM12
TK-10 = test system: TK-10
MDA-MB-435 = test system: MDA-MB-435
SNB-19 = test system: SNB-19
HCT-15 = test system: HCT-15
UACC-257 = test system: UACC-257
SF-268 = test system: SF-268
UO-31 = test system: UO-31
EKVX = test system: EKVX
DU-145 = test system: DU-145
CCRF-CEM = test system: CCRF-CEM
NCI/ADR-RES = test system: NCI/ADR-RES
NCI-H522 = test system: NCI-H522
NCI-H226 = test system: NCI-H226
BT-549 = test system: BT-549
SR = test system: SR
RXF 393 = test system: RXF 393
IGROV-1 = test system: IGROV-1
OVCAR-5 = test system: OVCAR-5
SK-MEL-2 = test system: SK-MEL-2

Measured: GI50

Clc1cccc(-c2sc(-c3cccs3)cc2Cc2cccs2)c1
2.79 µM: HCT-15
inactive: KM12 > 10 µM | TK-10 > 10 µM | MDA-MB-435 > 10 µM | SNB-19 > 10 µM | UACC-257 > 10 µM | SF-268 > 10 µM | UO-31 > 10 µM | EKVX > 10 µM | DU-145 > 10 µM | CCRF-CEM > 10 µM | NCI/ADR-RES > 10 µM | NCI-H522 > 10 µM | NCI-H226 > 10 µM | BT-549 > 10 µM | SR > 10 µM | RXF 393 > 10 µM | IGROV-1 > 10 µM

Cc1ccc(S[C@@](C=O)(NC(=O)OCc2ccccc2)C(F)(F)F)cc1
22.9 µM: HCT-15
inactive: KM12 20.8 µM | MDA-MB-435 28.8 µM | SNB-19 21 µM | UACC-257 36.8 µM | SF-268 22.6 µM | UO-31 15.6 µM | OVCAR-5 23.2 µM | EKVX 22.3 µM | DU-145 21.7 µM | CCRF-CEM 23.2 µM | NCI/ADR-RES 21.4 µM | NCI-H226 18.6 µM | BT-549 28.4 µM | SR 14.5 µM | RXF 393 14.4 µM | IGROV-1 18.5 µM | SK-MEL-2 25.8 µM

Nn1c(-c2ccccc2)nn(C(=O)c2ccccc2)c1=O
inactive: KM12 > 100 µM | TK-10 > 100 µM | MDA-MB-435 > 100 µM | SNB-19 > 100 µM | UACC-257 > 100 µM | SF-268 > 100 µM | UO-31 > 100 µM | OVCAR-5 > 100 µM | EKVX > 100 µM | DU-145 > 100 µM | CCRF-CEM > 100 µM | NCI/ADR-RES > 100 µM | NCI-H522 > 100 µM | NCI-H226 > 100 µM | BT-549 > 100 µM | SR > 100 µM | RXF 393 > 100 µM | IGROV-1 > 100 µM
> 100 µM: HCT-15

O=[N+]([O-])C(C=C(n1nnc2ccccc21)n1nnc2ccccc21)=C(n1nnc2ccccc21)n1nnc2ccccc21
active: SNB-19 0.975 µM
> 100 µM: HCT-15
inactive: KM12 > 100 µM | TK-10 > 100 µM | MDA-MB-435 > 100 µM | SF-268 > 100 µM | UO-31 22.1 µM | OVCAR-5 > 100 µM | EKVX > 100 µM | DU-145 > 100 µM | CCRF-CEM 25 µM | NCI/ADR-RES > 100 µM | NCI-H226 > 100 µM | BT-549 > 100 µM | SR 23 µM | RXF 393 > 100 µM | IGROV-1 > 100 µM

Cc1cc(C)nc(NC(=S)Nc2ccc([N+](=O)[O-])cc2)c1
inactive: KM12 > 100 µM | TK-10 > 100 µM | MDA-MB-435 > 100 µM | SNB-19 > 100 µM | UACC-257 > 100 µM | SF-268 > 100 µM | UO-31 > 100 µM | EKVX > 100 µM | DU-145 > 100 µM | CCRF-CEM > 100 µM | NCI/ADR-RES > 100 µM | NCI-H226 > 100 µM | BT-549 > 100 µM | SR > 100 µM | RXF 393 > 100 µM | IGROV-1 > 100 µM | SK-MEL-2 > 100 µM
> 100 µM: HCT-15

COC1CC(OC2C(C)OC(OC3C(C)OC(OC4C(O)CC(O[C@H]5CC[C@@]6(C)C(=CC[C@]7(O)[C@@H]6C[C@@H](OC(C)=O)[C@@]6(C)[C@]7(O)CC[C@@]6(O)C(C)=O)C5)OC4C)CC3OC)CC2OC)OC(C)C1O (stereo partly specified)
inactive: KM12 > 12.5 µM | TK-10 > 12.5 µM | MDA-MB-435 > 12.5 µM | SNB-19 > 12.5 µM | UACC-257 > 12.5 µM | SF-268 > 12.5 µM | UO-31 5.61 µM | OVCAR-5 > 12.5 µM | EKVX > 12.5 µM | DU-145 > 12.5 µM | CCRF-CEM > 12.5 µM | NCI/ADR-RES > 12.5 µM | NCI-H522 > 12.5 µM | NCI-H226 > 12.5 µM | BT-549 > 12.5 µM | SR > 12.5 µM | IGROV-1 > 12.5 µM | SK-MEL-2 > 12.5 µM
> 12.5 µM: HCT-15

CCC(=O)Nc1ccc(NCC(=O)Nc2ccc(OC)cc2)cc1
32.8 µM: HCT-15
inactive: KM12 17.4 µM | MDA-MB-435 30.5 µM | SNB-19 13.2 µM | UACC-257 7.8 µM | SF-268 17.7 µM | UO-31 45.5 µM | OVCAR-5 17.4 µM | EKVX 16.7 µM | DU-145 31.8 µM | CCRF-CEM 25.4 µM | NCI/ADR-RES 28.1 µM | NCI-H522 15.2 µM | NCI-H226 12.4 µM | BT-549 23.2 µM | SR 31.8 µM | RXF 393 16.4 µM | IGROV-1 25.8 µM | SK-MEL-2 18.4 µM

Cc1cc2c(c(C(=O)NCC(=O)N[C@@H](C)C(=O)OCc3ccccc3)c1)Oc1c(cc(C)cc1C(=O)NCC(=O)N[C@@H](C)C(=O)OCc1ccccc1)S2
inactive: KM12 > 100 µM | MDA-MB-435 > 100 µM | SNB-19 > 100 µM | UACC-257 > 100 µM | SF-268 37.2 µM | UO-31 > 100 µM | OVCAR-5 > 100 µM | EKVX > 100 µM | DU-145 > 100 µM | CCRF-CEM > 100 µM | NCI/ADR-RES > 100 µM | NCI-H226 > 100 µM | BT-549 > 100 µM | SR 17.8 µM | RXF 393 20.1 µM | IGROV-1 99.1 µM | SK-MEL-2 24.9 µM
> 100 µM: HCT-15
